Assay results published in paper PMC12705620 (Frontiers in Pharmacology, 2025).
Bridge positions count the residues as written; N and C are the ends. Square brackets hold non-standard residues; d marks the D form. Peptide text beside a SMILES is read from it. I, II: the chains in the order shown. Dap = NC[C@H](N)C(=O)O; Ahx = NCCCCCC(=O)O

Test system: Enterococcus faecium LUH15122
Assay type: cell-based
Details: LUH15122, 18 h
Method: Bactericidal activity was assessed as previously described ([Breij et al., 2018]). Briefly, mid-logarithmic phase bacterial cultures were diluted in RPMI to 1 × 10^7 CFU/mL. For fungicidal assays, fungal cultures were prepared in RPMI supplemented with 1% glucose (Merck) and diluted to 2–5 × 10^5 CFU/mL. For each condition, 10 µL of the suspension was added to 90 µL of peptide-containing RPMI or RPMI supplemented with 50% (v/v) pooled human plasma (hereafter referred to as 50% plasma; final bacterial concentration 1 × 10^6 CFU/mL, final fungal concentration 2–5 × 10^4 CFU/mL. Human plasma from four healthy volunteers (Sanquin, Netherlands) was pooled, and stored at −20 °C until use. Peptides were tested similarly for fungicidal activity, after 18 h of incubation at 37 °C with shaking (120 rpm) under humidified conditions, bacterial and fungal survival was determined by plating 10 µL aliquots onto BA plates. Assays were performed in duplicate in round-bottom polypropylene microtiter plates (Costar) and repeated independently three times. Untreated controls included bacteria exposed to RPMI alone or RPMI with 50% plasma. Bactericidal and fungicidal activity was expressed as the lethal concentration 99.9% (LC99.9), defined as the lowest peptide concentration causing ≥99.9% reduction in numbers of CFU compared to the initial inoculum.

N=C(N)NCCC[C@H](NC(=O)[C@H](Cc1c[nH]c2ccccc12)NC(=O)[C@H](CCC(N)=O)NC(=O)[C@H](Cc1c[nH]c2ccccc12)NC(=O)[C@H](CCCNC(=N)N)NC(=O)[C@@H](N)CCCNC(=N)N)C(=O)NC[C@H](NC(=O)[C@H](CCCNC(=N)N)NC(=O)[C@H](Cc1c[nH]c2ccccc12)NC(=O)[C@H](CCC(N)=O)NC(=O)[C@H](Cc1c[nH]c2ccccc12)NC(=O)[C@H](CCCNC(=N)N)NC(=O)[C@@H](N)CCCNC(=N)N)C(=O)NCCCCCC(=O)N[C@@H](CSSC[C@H](NC(=O)CCCCCNC(=O)[C@H](CNC(=O)[C@H](CCCNC(=N)N)NC(=O)[C@H](Cc1c[nH]c2ccccc12)NC(=O)[C@H](CCC(N)=O)NC(=O)[C@H](Cc1c[nH]c2ccccc12)NC(=O)[C@H](CCCNC(=N)N)NC(=O)[C@@H](N)CCCNC(=N)N)NC(=O)[C@H](CCCNC(=N)N)NC(=O)[C@H](Cc1c[nH]c2ccccc12)NC(=O)[C@H](CCC(N)=O)NC(=O)[C@H](Cc1c[nH]c2ccccc12)NC(=O)[C@H](CCCNC(=N)N)NC(=O)[C@@H](N)CCCNC(=N)N)C(N)=O)C(N)=O [LBT-1] (I: H-RRWQWR[Dap][Ahx]C-NH2 / II: H-RRWQWR[Dap][Ahx]C-NH2 / III: H-RRWQWR / IV: H-RRWQWR; amide I:7-III:C, II:7-IV:C; disulfide I:9-II:9; N-terminus and C-terminus assumed)
LC99.9: 0.94 µM
